Reference: patent publication US20080113907A1, “Uses Of Galectin-2” (Charite-Universitat-Smedizin Berlin, priority 2004, published 2008)
Where a SMILES comes first, the peptide text is derived from it. The star is where a group is joined. Cbz = O=C(OCc1ccccc1)*; CH2F = FC*

Assays:
[1] = system: dextran sodium sulfate induced colitis; experiment: Prevention of DSS induced acute colitis, disease activity index (DAI); assay type: in vivo, Balb/c mice; conditions: 2 mg/kg i.p.; 10 days after induction; control 6.5 ± 0.3
Description: Colitis was induced in 8- to 10-week-old, female, Balb/c mice (Jackson Laboratories, Bar Harbor, Me.) by adding 5% DSS (Sigma Chemical Co., St. Louis, Mo.) (Dextran Sodiumsulfate (DSS) to their drinking water and allowing them to drink ad libitum. Groups of mice were treated either with 1 mg/kg BW (body weight) galectin-2 intraperitoneally or PBS 2 h before DSS administration. Mice were weighed and inspected for diarrhea and rectal bleeding. Seven days after induction of colitis by DSS, mice were killed, their entire colon was resected, and its length was measured and weighed. The disease activity index (DAI; i.e., the combined score of weight loss and bleeding) was determined according to a standard scoring system.
The disease activity index: Loss in bodyweight: 0=no loss; 1=5% to 10%; 2=10% to 15%; 3=15% to 20%; 4 ? 20%.
Hemoccult: 0=no blood; 2=positive; 4=gross blood.
In this experiment the DAI ranges from 0 to 8. The higher the DAI score the more severely the animal had been affected by colitis.
Colitis was induced in 8- to 10-week-old, female, Balb/c mice (Jackson Laboratories, Bar Harbor, Me.) by adding 5% DSS (Sigma Chemical Co., St. Louis, Mo.) (Dextran Sodiumsulfate (DSS) to their drinking water and allowing them to drink ad libitum. Groups of respectively 10 mice were treated either with Galectin-2 subcutaneously (s.c.) or intraperitoneally (i.p.) 2 h before DSS administration. In one trial with 10 mice the doses of Galectin-2 was doubled (administered i.p.) and compared to the treatment of 10 mice with Tacrolimus (FK506) (administered i.p.) in equal concentrations. In parallel a group of 10 mice was treated with 0.9% NaCl instead of Galectin-2 as control. Mice were weighed and inspected for diarrhea and rectal bleeding. 10 days after induction of colitis by DSS, mice were killed, their entire colon was resected, and its length was measured and weighed. The disease activity index (DAI; i.e., the combined score of weight loss and bleeding) was determined according to a standard scoring system.
The disease activity index: Loss in body weight: 0=no loss; 1=5% to 10%; 2=10% to 15%; 3=15% to 20%; 4 ? 20%.

PBT [2] = experiment: Extent of apoptosis and necrosis (annexin-V, PI, DAPI staining); assay type: cell-based, human; conditions: for effect on galectin-2 induced apoptosis: 50 mM; for effect on galectin-1 induced cell death / effect on galectin-2 induced T cell apoptosis / effect on galectin-7 induced cell death: caspase inhibitor 50 μM
Description: Apoptosis was determined by monitoring fragmentation of nuclear DNA and access of annexin V to c ell surface phosphatidylserine (PS). To detect fragmentation of nuclear DNA, T cells were cultured in the presence and absence of the respective galectins, with or without blocking antibodies or further activation for 48 h. Thereafter, cells were fixed in 0.2 ml of 37% formaldehyde for 10 min at room temperature. The cells were then treated with 1 ml PBS containing 0.2% Nonidet P-40 (Sigma-Aldrich) for 2 min at room temperature and then rinsed once in PBS. The apoptotic cells were detected by staining of nuclear DNA with 4,6-diamino-2-phenylindole (DAPI) (Calbiochem). DAPI was added at a concentration of 0.2 ng/ml of PBS and cells were incubated at room temperature for 20 min in this solution. Cells were rinsed twice in PBS and the coverslips were maintained cell side down on a microscope slide and analyzed using a Zeiss Axiovert 135M microscope (Carl Zeiss, Oberkochen, Germany). To detect early phases of apoptosis, access to PS was measured. Cells were cultured as described, harvested at the respective time points, stained with FITC-labeled annexin-V and PI and analyzed by flow cytometry using the CellQuest software program (BD Pharmingen). A minimum of 15,000 cells was monitored in each case.

T cells = experiment: Binding of biotinylated Gal-2 to T lymphocytes (flow cytometry); design: species or system human; conditions: 50 mM
Description: To measure Gal-2 binding to T lymphocytes, aliquots of cell suspensions were kept as controls or stimulated for 1, 6, 12, 24, 48, and 72 h with anti-CD3 mAb or PMA and PHA and incubated in the presence of 5 μg/ml biotin-labeled Gal-2. Cells were then harvested, washed and stained with anti-CD3-FITC mAb and APC-labeled streptavidin (Biosource) followed by flow cytofluorometric analysis. Cells cultured in the absence of biotin-labeled Gal-2 and stained with FITC-labeled mouse IgG (BD Pharmingen) or APC-labeled streptavidin served as isotype controls. Each analysis was performed on at least 20,000 events.

PBT [3] = experiment: Analysis of T cell cycling (DNA content, cyclin B1, cell cycle regulators); assay type: cell-based, human; conditions: anti-CD3 activated PBT; dropped from 8% (galectin-1) and 7% (galectin-7)
Description: For immunoblotting cells were washed in PBS, and lysed in cell lysis buffer (1% Triton-X, 0.5% NP-40, 0.1% SDS, 0.5% sodium deoxycholate, 5 mM EDTA, 50 mM and 50 mM protease- and phosphatase-inhibitor cocktail 2, 1 mM PMSF, 100 μg/ml trypsin-chymotrypsin inhibitor, 100 μg/ml chymostatin in PBS). The concentration of proteins in each lysate was measured using the Bio-Rad protein assay (Bio-Rad Laboratories, Hercules, Calif.). Equivalent amounts of protein (10 μg) were fractionated on a 10-20% Tris-glycine gel and electrotransferred to a nitrocellulose membrane (Novex, San Diego, Calif.). Membranes were blocked with 5% milk in 0.1% Tween 20-PBS (Fisher Scientific, Hanover Park, Ill.), followed by incubation for 60 m in at room temperature with the indicated primary antibody. The membranes were washed six times with 0.1% Tween 20-PBS and then incubated for 1 h with the appropriate horseradish peroxidase-conjugated secondary antibody (Santa Cruz Biotechnology), washed, and incubated with the chemiluminescent substrate (Perkin-Elmer, Carlsbad, Calif.) for 5 minutes. The membranes were then exposed to film (Amersham, Arlington Heights, Ill.).
Flow cytometry was performed after staining for DNA content, and cyclin B1, essentially as previously described (21). Briefly, cells were washed twice with PBS, adjusted to 1×10^6 cells/sample and fixed in 90% Methanol at −20° C. After fixation, cells were washed twice with PBS, incubated for 45 min at 4° C. with a cyclin B1-FITC conjugated monoclonal antibody. After the final wash, cells were resupended in PBS and 5 μl of RNase (0.6 μg/ml, 30-60 Kunitz Units, Sigma), incubated at 37° C. for 15 min and the chilled on ice. One hundred and twenty five microliters of PI (200 μg/ml) were added prior to analysis by flow cytometry. Each analysis was performed on at least 25.000 events.

T cells (PBT, LPT) = experiment: Adhesion assay to collagen type I and fibronectin; assay type: cell-based, human; conditions: PBT
Description: 96 well flat-bottom plates were precoated overnight at 4° C. with 12 μg/well fibronectin (Chemicon) in DPBS, 40 μg/well collagen type I (Sigma-Aldrich) in 0.1 M acetic acid, or 3% BSA (Sigma-Aldrich) in DPBS as a control and then washed three times with DPBS. Freshly isolated T cells were fluorescently-labelled with 5 μM calcein-AM (Molecular Probes, Eugene, Oreg.) for 30 min at 37° C. in 5% CO2 at 5×10^6 cells/ml in RPMI. The cells were then washed three times with RPMI containing 5% FCS. Calcein-labelled T cells were resuspended in RPMI and 5×10^5 T cells/well were added to 96-well plates containing purified ECM components or BSA for the indicated times. Saturating concentrations of integrin-blocking mAbs (predetermined by flow cytometry) were preincubated with T cells for 30 min at 37° C. before adding T cells to the wells for the adhesion assay. Nonadherent cells were removed by a standardized washing technique that was developed to minimize background binding, which includes both an orbital and a rocking motion repeated three times with RPMI. Adhesion was quantified with a multiwell fluorescent spectrophotometer (Tecan, Groedig, Austria). For each experimental group the results were expressed as the mean percentage±SD of bound T cells from triplicate wells.

| Compound | effect on galectin-1 induced cell death (PBT [2]) | effect on galectin-2 induced T cell apoptosis (PBT [2]) | effect on galectin-7 induced cell death (PBT [2]) | also measured |
| --- | --- | --- | --- | --- |
| C=CC[C@@H]1/C=C(\C)C[C@H](C)C[C@H](OC)[C@H]2O[C@@](O)(C(=O)C(=O)N3CCCC[C@H]3C(=O)O[C@H](/C(C)=C/[C@@H]3CC[C@@H](O)[C@H](OC)C3)[C@H](C)[C@@H](O)CC1=O)[C@H](C)C[C@@H]2OC [Tacrolimus, reference compound] | – | – | – | DAI (disease activity index) [1]: 2.4 ± 0.5,; apoptosis and necrosis of stimulated and unstimulated T cells (PBT [2]; 0, 50, 100 μg/ml, 24 h, with or without anti-CD3): makes no distinction between stimulated and unstimulated T-cells and mainly induces necrosis |
| O=P1(N(CCCl)CCCl)NCCCO1 (stereo not drawn) [cyclophosphamide] | – | – | – | effect on galectin-2 induced T cell death (PBT [2]; 0, 10, 1000 nM, data not shown): failed to modulate galectin-2 induced T cell death |
| OC[C@H]1O[C@@H](O[C@H]2[C@H](O)[C@@H](O)C(O)O[C@@H]2CO)[C@H](O)[C@@H](O)[C@H]1O (stereo partly drawn) [lactose, reference compound] | – | – | – | reduction of Gal-2 binding to T cells (T cells; unstimulated T cells): more than 70%; effect on galectin-2 induced apoptosis (PBT [2]): largely inhibited |
| OC[C@H]1O[C@@](CO)(O[C@H]2O[C@H](CO)[C@@H](O)[C@H](O)[C@H]2O)[C@@H](O)[C@@H]1O [sucrose, reference compound] | – | – | – | effect on Gal-2 staining intensity of T cells (T cells; not shown): failed to affect the staining intensity; effect on galectin-2 induced apoptosis (PBT [2]): not |
| COC(=O)CC[C@H](NC(=O)[C@H](CC(=O)OC)NC(=O)OCc1ccccc1)C(=O)N[C@H](C(=O)N[C@@H](CC(=O)OC)C(=O)CF)C(C)C [zDEVD, Z-Asp-Glu-Val-Asp(OMe)-fluoromethylketone] | impair | significantly inhibited | inhibited | – |
| COC(=O)CC[C@H](NC(=O)[C@H](CC(C)C)NC(=O)OCc1ccccc1)C(=O)N[C@@H](Cc1cnc[nH]1)C(=O)N[C@@H](CC(=O)OC)C(=O)CF [zLEHD, Z-Leu-Glu(Ome)-His-Asp-(Ome)-Ch2F] (Cbz-LE(OMe)HD(OMe)-CH2F) | blocked | significantly inhibited | not | – |
| COC(=O)C[C@H](NC(=O)[C@H](C)NC(=O)[C@@H](NC(=O)OCc1ccccc1)C(C)C)C(=O)CF [zVAD, Z-Val-Ala-Asp(OMe)-fluoromethylketone] (Cbz-Val-Ala-Asp(OMe)-CH2F) | impair | significantly inhibited | inhibited | – |
| COC(=O)C[C@H](NC(=O)[C@H](C)NC(=O)[C@@H](NC(=O)[C@H](Cc1ccc(O)cc1)NC(=O)OCc1ccccc1)C(C)C)C(=O)CF [zYVAD, Z-Tyr-Val-Ala-Asp(Ome)-Ch2F] | – | had no effect | blocked | – |
| Z-Ile-Glu-Thr-Asp(OMe)-fluoromethylketone [zIETD] | blocked | had no effect | inhibited | – |
| galectin-7: another homodimeric proto-type galectin used for comparison | – | – | – | PBT apoptosis relative to galectin-2 (PBT [2]; stimulated T cells): induced PBT apoptosis comparable to galectin-2; cyclin B1 expression (PBT [3]): 1%; effect on PBT adhesion to collagen or fibronectin (T cells (PBT, LPT)): failed to significantly alter PBT adhesion to collagen or fibronectin |
